Results published in paper PMC8226839, “New Perspectives in the Antimicrobial Activity of the Amphibian Temporin B: Peptide Analogs Are Effective Inhibitors of Candida albicans Growth” (Journal of Fungi, 2021).
Square brackets hold non-standard residues; d marks the D form. Peptide text beside a SMILES is read from it.

Tested on: sheep erythrocytes
Details: 50 μg per disk, Columbia blood agar plates, 37 °C, 24 h

Structure (SMILES)	hemolysis
CC[C@H](C)[C@H](NC(=O)[C@@H]1CCCN1C(=O)[C@H](CC(C)C)NC(=O)[C@H](CC(C)C)NC(=O)[C@@H](CCCCN)NC(=O)[C@H](N)CCCCN)C(=O)N[C@H](C(=O)N[C@H](CCCCN)C(=O)N[C@@H](CC(N)=O)C(=O)N[C@@H](CC(C)C)C(=O)N[C@@H](CC(C)C)C(=O)N[C@H](CCCCN)C(=O)N[C@@H](CO)C(=O)N[C@@H](CC(C)C)C(=O)N[C@@H](CC(C)C)C(N)=O)C(C)C [D-Lys_TB_KKG6K] (H-[dK][dK]LLPIV[dK]NLL[dK]SLL-NH2)	did not induce the hemolysis
CC[C@H](C)[C@H](NC(=O)[C@@H]1CCCN1C(=O)[C@H](CC(C)C)NC(=O)[C@H](CC(C)C)NC(=O)[C@H](CCCCN)NC(=O)[C@@H](N)CCCCN)C(=O)N[C@H](C(=O)N[C@@H](CCCCN)C(=O)N[C@@H](CC(N)=O)C(=O)N[C@@H](CC(C)C)C(=O)N[C@@H](CC(C)C)C(=O)N[C@@H](CCCCN)C(=O)N[C@@H](CO)C(=O)N[C@@H](CC(C)C)C(=O)N[C@@H](CC(C)C)C(N)=O)C(C)C [TB_KKG6K] (H-KKLLPIVKNLLKSLL-NH2)	did not induce the hemolysis
